According to patent US6565897B2, “Extract of nerium species, pharmaceutical composition thereof and methods for preparation thereof” (Ozelle Pharmaceuticals, Inc., priority 1998, dated 2003):

Tested on: Tumor Necrosis Factor (TNF)
Test: Tumor Necrosis Factor (TNF) production (immune stimulation)
Format: cell-based
Details: at a concentration of 50 mcg/mL
Source text: For example, the polysaccharide PS-I is shown to produce 256 Unit/mL of Tumor Necrosis Factor (TNF) at a concentration of 50 mcg/mL while a mixture of PS-II, PS-III and PS-IV is shown to produce 1000 Unit/mL of TNF at a concentration of 3 mcg/mL.

Substance: Poly α (1→4) D-Galacturonic Acid [PS-I]
- Tumor Necrosis Factor (TNF) produced: 256 Unit/mL
